We go through 23 compounds from PubChem BioAssay AID330 (DTP/NCI, 2004).

For this assay, the system named is P388 leukemia ip, CD2F1 mice, survival T/C. The assay is described as follows: NCI In Vivo Anticancer Drug Screen. Data for tumor model P388 Leukemia (intraperitoneal) in CD2F1 (CDF1) mice. The note with it: endpoint: median survival time, higher = longer survival. A digest of the protocol: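 Mice carrying the transplanted tumor received test compound or vehicle. Survival was recorded in each group, and the value is the treated-group measurement divided by that of the vehicle-treated control group.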

Setting [1] is: dose: 50.0 mg/kg/injection, schedule: Q01DX009 (ip), vehicle: Klucel (hydroxypropylcellulose) (HPC).
The mark [2] stands for this setting: dose: 100.0 mg/kg/injection, schedule: Q01DX009 (ip), vehicle: Klucel (hydroxypropylcellulose) (HPC).
Setting [3] is: dose: 200.0 mg/kg/injection, schedule: Q01DX009 (ip), vehicle: Klucel (hydroxypropylcellulose) (HPC).
The mark [4] stands for this setting: dose: 12.5 mg/kg/injection, schedule: Q01DX009 (ip), vehicle: saline with Tween-80.
[5] abbreviates: dose: 25.0 mg/kg/injection, schedule: Q01DX009 (ip), vehicle: saline with Tween-80.
[6] abbreviates: dose: 50.0 mg/kg/injection, schedule: Q01DX009 (ip), vehicle: saline with Tween-80.
The mark [7] stands for this setting: dose: 100.0 mg/kg/injection, schedule: Q01DX009 (ip), vehicle: saline with Tween-80.
The mark [8] stands for this setting: dose: 50.0 mg/kg/injection, schedule: Q01DX005 (ip), vehicle: saline with Tween-80.
Where [9] appears, read: dose: 100.0 mg/kg/injection, schedule: Q01DX005 (ip), vehicle: saline with Tween-80.
Setting [10] is: dose: 200.0 mg/kg/injection, schedule: Q01DX005 (ip), vehicle: saline with Tween-80.
The mark [11] stands for this setting: dose: 50.0 mg/kg/injection, schedule: Q01DX009 (ip), vehicle: saline.
Setting [12] is: dose: 100.0 mg/kg/injection, schedule: Q01DX009 (ip), vehicle: saline.
Setting [13] is: dose: 200.0 mg/kg/injection, schedule: Q01DX009 (ip), vehicle: saline with Tween-80.
Where [14] appears, read: dose: 100.0 mg/kg/injection, schedule: Q01DX001 (ip), vehicle: Klucel (hydroxypropylcellulose) (HPC).
Where [15] appears, read: dose: 200.0 mg/kg/injection, schedule: Q01DX001 (ip), vehicle: Klucel (hydroxypropylcellulose) (HPC).
Where [16] appears, read: dose: 400.0 mg/kg/injection, schedule: Q01DX001 (ip), vehicle: Klucel (hydroxypropylcellulose) (HPC).
The mark [17] stands for this setting: dose: 200.0 mg/kg/injection, schedule: Q01DX009 (ip), vehicle: saline.
Setting [18] is: dose: 60.0 mg/kg/injection, schedule: Q01DX005 (ip), vehicle: saline with Tween-80.
Setting [19] is: dose: 120.0 mg/kg/injection, schedule: Q01DX005 (ip), vehicle: saline with Tween-80.
The mark [20] stands for this setting: dose: 240.0 mg/kg/injection, schedule: Q01DX005 (ip), vehicle: saline with Tween-80.
The mark [21] stands for this setting: dose: 100.0 mg/kg/injection, schedule: Q01DX001 (ip), vehicle: saline with Tween-80.
Where [22] appears, read: dose: 200.0 mg/kg/injection, schedule: Q01DX001 (ip), vehicle: saline with Tween-80.
[23] abbreviates: dose: 400.0 mg/kg/injection, schedule: Q01DX001 (ip), vehicle: saline with Tween-80.

“And” between values parts separate entries of the source, which are not always exact repeats. Equal values may be shown once. Toxic doses and inconclusive results are not listed. Peptide text beside a SMILES is read from it. * marks the point of attachment. Cbz = O=C(OCc1ccccc1)*

On to `O=C(NC(c1ccccc1)c1ccccc1)OCc1c2ccccc2cc2ccccc12`, for which the T/C runs as follows: under setting [1], 88 % of control; under setting [2], 100 % of control; under setting [3], 100 % of control.
Take `Cn1cnc([N+](=O)[O-])c1N`: the T/C under setting [4] is 106 % of control, the T/C under setting [5] was 119 % of control, the T/C under setting [6] is 103 % of control and the T/C under setting [7] is 106 % of control.
Consider `N=C(N)c1ccc(NN=Nc2cccc3c2Oc2ccccc2O3)cc1`, for which the T/C reads like this: under setting [8], 106 % of control; under setting [9], 103 % of control; under setting [10], 95 % of control.
As to `COP(=O)(OC)OC.COP(=O)(OC)OC.COP(=O)(OC)OC.COP(=O)(OC)OC.COP(=O)(OC)OC.[O-][Cl+3]([O-])([O-])O.[Zn+2]`, the T/C reads like this: (dose: 25.0 mg/kg/injection, schedule: Q01DX009 (ip), vehicle: saline) 104 % of control and 114 % of control; under setting [11], 106 % of control and 112 % of control (2×); under setting [12], 118 % of control and 119 % of control and 123 % of control.
With `Cc1o[nH]c(=O)c1C`, the T/C runs as follows: under setting [7], 100 % of control; under setting [13], 100 % of control; (dose: 400.0 mg/kg/injection, schedule: Q01DX009 (ip), vehicle: saline with Tween-80) 100 % of control.
On to `CCn1c(Cl)c(/C=N/NC(N)=S)c2cc(/C=N/NC(N)=S)ccc21`, for which the T/C reads like this: under setting [14], 98 % of control; under setting [15], 97 % of control; under setting [16], 89 % of control.
For the compound `O=C(OC(c1ccccc1)c1ccccc1)c1ccccc1`, the T/C under setting [11] was 99 % of control, the T/C under setting [12] was 108 % of control and the T/C under setting [17] is 102 % of control.
Regarding `CCOC(=O)N1OC2C=CC1CC2` (stereo not given), the T/C by setting is: under setting [18], 97 % of control; under setting [19], 102 % of control; under setting [20], 100 % of control.
Turning to `CN(C)C1(c2ccc3ccccc3c2)CSC1`, the T/C is, setting by setting: under setting [21], 100 % of control; under setting [22], 100 % of control; under setting [23], 96 % of control.
Turning to `c1ccc(-c2nnn(-c3ccccc3)n2)cc1`, the T/C reads like this: under setting [4], 91 % of control; under setting [5], 91 % of control; under setting [6], 91 % of control.
Turning to `N#Cc1c(-c2ccccc2)cn2c1[nH]c(=O)c1ccccc12`, the T/C by setting is: under setting [18], 111 % of control; under setting [19], 107 % of control; under setting [20], 101 % of control.
On to `NC(=S)n1nc(-c2cccs2)c(N=Nc2ccc(Cl)cc2)c1C(F)(F)F`, for which the T/C (dose: 60.0 mg/kg/injection, schedule: Q01DX005 (ip), vehicle: Klucel (hydroxypropylcellulose) (HPC)) was 87 % of control and the T/C (dose: 120.0 mg/kg/injection, schedule: Q01DX005 (ip), vehicle: Klucel (hydroxypropylcellulose) (HPC)) was 93 % of control.
Regarding `COc1ccccc1P(C)(=O)c1ccccc1` (stereo not given), the T/C was 102 % of control (dose: 50.0 mg/kg/injection, schedule: Q01DX005 (ip), vehicle: Klucel (hydroxypropylcellulose) (HPC)); 103 % of control (dose: 100.0 mg/kg/injection, schedule: Q01DX005 (ip), vehicle: Klucel (hydroxypropylcellulose) (HPC)); 98 % of control (dose: 200.0 mg/kg/injection, schedule: Q01DX005 (ip), vehicle: Klucel (hydroxypropylcellulose) (HPC)).
Take `NC(=O)c1cc(Cl)nc2nc(Cl)nc(N)c12`: the T/C was 105 % of control under setting [8]; 101 % of control (dose: 50.0 mg/kg/injection, schedule: Q04DX003 (ip), vehicle: saline with Tween-80); 105 % of control under setting [9]; 100 % of control and 114 % of control (dose: 100.0 mg/kg/injection, schedule: Q04DX003 (ip), vehicle: saline with Tween-80); 108 % of control under setting [10]; 106 % of control (dose: 200.0 mg/kg/injection, schedule: Q04DX003 (ip), vehicle: saline with Tween-80). The T/C runs as follows: (dose: 400.0 mg/kg/injection, schedule: Q01DX005 (ip), vehicle: saline with Tween-80) 112 % of control; (dose: 400.0 mg/kg/injection, schedule: Q04DX003 (ip), vehicle: saline with Tween-80) 110 % of control and 111 % of control.
`O=C(O)CCNC(=O)CCCO`: the T/C (dose: 50.0 mg/kg/injection, schedule: Q01DX005 (ip), vehicle: saline) is 100 % of control; the T/C (dose: 100.0 mg/kg/injection, schedule: Q01DX005 (ip), vehicle: saline) was 104 % of control; the T/C (dose: 200.0 mg/kg/injection, schedule: Q01DX005 (ip), vehicle: saline) was 104 % of control.
`COc1cc2c(c(OC)c1OC)-c1ccc(OC)c(=O)cc1[C@@H](NC(C)=O)CC2`: the T/C runs as follows: (dose: 0.02 mg/kg/injection, schedule: Q01DX009 (ip), vehicle: saline) 117 % of control; (dose: 0.06 mg/kg/injection, schedule: Q01DX009 (ip), vehicle: saline) 119 % of control; (dose: 0.08 mg/kg/injection, schedule: Q01DX009 (ip), vehicle: saline) 150 % of control; (dose: 0.13 mg/kg/injection, schedule: Q01DX005 (ip), vehicle: saline) 120 % of control; (dose: 0.16 mg/kg/injection, schedule: Q01DX009 (ip), vehicle: saline) 156 % of control; (dose: 0.32 mg/kg/injection, schedule: Q01DX009 (ip), vehicle: saline) 186 % of control. The T/C (dose: 0.37 mg/kg/injection, schedule: Q01DX010 (ip), vehicle: saline) is 168 % of control; the T/C (dose: 0.4 mg/kg/injection, schedule: Q01DX009 (ip), vehicle: water) is 176 % of control; the T/C (dose: 0.5 mg/kg/injection, schedule: Q01DX005 (ip), vehicle: saline) was 169 % of control; the T/C (dose: 0.64 mg/kg/injection, schedule: Q01DX009 (ip), vehicle: saline) was 225 % of control; the T/C (dose: 0.75 mg/kg/injection, schedule: Q01DX010 (ip), vehicle: saline) is 159 % of control; the T/C (dose: 1.0 mg/kg/injection, schedule: Q01DX005 (ip), vehicle: saline) is 160 % of control and 197 % of control and 205 % of control. Further, the T/C is, setting by setting: (dose: 1.25 mg/kg/injection, schedule: Q01DX009 (ip), vehicle: saline) 100 % of control (2×) and 281 % of control; (dose: 2.0 mg/kg/injection, schedule: Q01DX005 (ip), vehicle: saline) 175 % of control.
`CC(C)CC(NC(=O)C(NC(=O)OCc1ccccc1)C(C)C)C(=O)O` (stereo not drawn) (Cbz-Val-Leu-OH; configuration not given here): the T/C reads like this: under setting [8], 92 % of control; under setting [9], 106 % of control; under setting [10], 111 % of control.
For the compound `COC(=O)C1=CN(C)/C(=C/C=C(\C#N)C(=O)OC)C(C#N)=C1N`, the T/C was 96 % of control under setting [14], 97 % of control under setting [15] and 96 % of control under setting [16].
As to `CCC(c1ccc(OCCS(=O)(=O)Oc2ccc(C)cc2)cc1)C(CC)c1ccc(OCCS(=O)(=O)Oc2ccc(C)cc2)cc1` (stereo not given), the T/C was 106 % of control under setting [11], 87 % of control under setting [12] and 95 % of control under setting [17].
On to `Cc1cc(N(C)C)cc(C)c1N=Nc1cc[n+]([O-])cc1`, for which the T/C by setting is: under setting [5], 95 % of control; under setting [6], 94 % of control; under setting [7], 103 % of control; under setting [13], 95 % of control.
For `C(=N/n1nnc(-c2ccccc2)n1)/c1ccccc1`, the T/C by setting is: under setting [8], 101 % of control; under setting [9], 92 % of control.
For `O=S(=O)(Nc1ccc(CCc2ccc(NS(=O)(=O)c3ccccc3)cc2)cc1)c1ccccc1`, the T/C by setting is: under setting [21], 95 % of control; under setting [22], 91 % of control; under setting [23], 91 % of control.
As to `Cc1cccc2c1CN1CC(=O)NC1=N2`, the T/C is 103 % of control under setting [1], 97 % of control under setting [2] and 86 % of control under setting [3].
